From patent US20250066388A1, “1,3,4,7-TETRAHYDRO-2H-PYRROLO[3',2':5,6]PYRIDO[2,3-B][1,4]OXAZEPINE BCL-2 INHIBITORS” (AbbVie Inc., priority 2022, published 2025)

Assays:
Molt-4 cells = assay: Cell viability counter screen (CellTiter-Glo) in Molt-4 cells; type: cell-based; details: 24 hours, 10% Human Serum
In short: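 3000 cells/well (0.1×10^6/mL) were treated with compound for 24 hours in 5% CO2. Viability read by CellTiter-Glo luminescence; Molt-4 (T-ALL) served as the counter screen to RS4;11 (ALL).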

RS4;11 cells = assay: Cell viability assay (CellTiter-Glo) in RS4;11 cells; type: cell-based; details: 10% Human Serum
Method: The acute lymphoblastic leukemia (ALL) human cell line RS4;11 (ATCC, Manassas VA) was used as the primary human cell line to assess the cellular activity of compound of the present Examples in vitro and their efficacy in vivo. […] The acute lymphoblastic leukemia cell line Molt-4, which is derived from immature T-lymphoid cells (T-ALL), was used as a counter screen assay.
3000 Cells (0.1×10^6/mL) were seeded in each well of 384-well plate and were treated for 24 hours in a humidified chamber with 5% CO2. Cell viability was determined by CellTiter-Glo as described by the manufacturer's instructions (Promega Corporation, Madison, WI, USA).

Bcl-2 protein = Bcl-2 protein (Homo sapiens (Human), UniProt P10415); assay: TR-FRET binding assay, Bcl-2; details: F-Bak peptide probe, GST-Bcl-2
Bcl-xL protein = Bcl-xL protein (Homo sapiens (Human), UniProt Q07817); assay: TR-FRET binding assay, Bcl-xL; details: F-Bak peptide probe
Sequence of Bcl-xL protein (Q07817 other isoform, or with tags, fused parts or gaps): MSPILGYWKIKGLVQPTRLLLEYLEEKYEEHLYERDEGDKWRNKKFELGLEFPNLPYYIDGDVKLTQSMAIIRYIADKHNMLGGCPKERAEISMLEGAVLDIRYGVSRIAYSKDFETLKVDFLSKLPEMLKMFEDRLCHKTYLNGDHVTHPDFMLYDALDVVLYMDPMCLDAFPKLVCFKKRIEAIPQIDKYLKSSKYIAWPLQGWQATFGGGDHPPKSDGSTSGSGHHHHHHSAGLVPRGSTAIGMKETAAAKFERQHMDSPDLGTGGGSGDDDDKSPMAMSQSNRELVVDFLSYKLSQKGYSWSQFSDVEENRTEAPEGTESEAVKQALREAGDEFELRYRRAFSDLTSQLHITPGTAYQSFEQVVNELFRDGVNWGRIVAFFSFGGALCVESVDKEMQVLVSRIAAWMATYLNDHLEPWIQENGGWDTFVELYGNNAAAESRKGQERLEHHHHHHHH

Sequence of Bcl-2 protein (P10415 other isoform, or with tags, fused parts or gaps): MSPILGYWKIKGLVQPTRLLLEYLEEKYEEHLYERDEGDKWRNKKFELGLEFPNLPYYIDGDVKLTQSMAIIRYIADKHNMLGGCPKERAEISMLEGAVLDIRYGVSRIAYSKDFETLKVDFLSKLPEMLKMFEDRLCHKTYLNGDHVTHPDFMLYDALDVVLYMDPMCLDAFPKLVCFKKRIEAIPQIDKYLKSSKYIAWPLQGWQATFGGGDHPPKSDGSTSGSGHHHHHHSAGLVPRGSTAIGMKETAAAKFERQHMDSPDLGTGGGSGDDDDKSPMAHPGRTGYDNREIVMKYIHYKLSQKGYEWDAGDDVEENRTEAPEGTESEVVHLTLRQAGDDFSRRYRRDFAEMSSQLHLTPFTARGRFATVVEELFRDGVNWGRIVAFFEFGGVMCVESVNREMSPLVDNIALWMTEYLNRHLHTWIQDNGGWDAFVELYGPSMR

## CO[C@H]1C[C@H](Nc2ccc(S(=O)(=O)NC(=O)c3ccc(N4CCN5CC6=C(c7ccc(Cl)cc7)CC(C)(C)C[C@H]6OCCCOC[C@@H]5C4)cc3N3CCCOc4nc5[nH]ccc5cc43)cc2[N+](=O)[O-])C1 [Example 30, 4-((4aS,10aR)-14-(4-chlorophenyl)-12,12-dimethyl-1,2,4a,5,8,9,10a,11,13,15-decahydro-7H,12H-benzo[f]pyrazino[2,1-c][1,8]dioxa[4]azacycloundecin-3(4H)-yl)-2-(3,4-dihydro-2H-pyrrolo[3′,2′:5,6]pyrido[2,3-b][1,4]oxazepin-1(7H)-yl)-N-((4-(((1r,3r)-3-methoxycyclobutyl)amino)-3-nitrophenyl)sulfonyl)benzamide]
Molt-4 cells
  EC50: > 10000 nM
RS4;11 cells; 24 hours
  EC50: 4.1 nM
Bcl-2 protein
  Ki: 2.58 nM
Bcl-xL protein
  Ki: 39 nM

## C[C@@H]1CO[C@@H](COc2ccc(S(=O)(=O)NC(=O)c3ccc(N4CCN5CC6=C(c7ccc(Cl)cc7)CC(C)(C)C[C@H]6OCCCOC[C@@H]5C4)cc3N3CCCOc4nc5[nH]ccc5cc43)cc2[N+](=O)[O-])CO1 [Example 20, 4-((4aS,10aR)-14-(4-chlorophenyl)-12,12-dimethyl-1,2,4a,5,8,9,10a,11,13,15-decahydro-7H,12H-benzo[f]pyrazino[2,1-c][1,8]dioxa[4]azacycloundecin-3(4H)-yl)-2-(3,4-dihydro-2H-pyrrolo[3′,2′:5,6]pyrido[2,3-b][1,4]oxazepin-1(7H)-yl)-N-((4-(((2R,5R)-5-methyl-1,4-dioxan-2-yl)methoxy)-3-nitrophenyl)sulfonyl)benzamide]
Molt-4 cells
  EC50: 1610 nM
RS4;11 cells; 24 hours
  EC50: 5.21 nM
Bcl-2 protein
  Ki: 0.977 nM
Bcl-xL protein
  Ki: 17.3 nM

## CO[C@H]1CC[C@H](COc2ccc(S(=O)(=O)NC(=O)c3ccc(N4CCN5CC6=C(c7ccc(Cl)cc7)CC(C)(C)C[C@H]6OCCCOC[C@@H]5C4)cc3N3CCCOc4nc5[nH]ccc5cc43)cc2[N+](=O)[O-])OC1 [Example 33, 4-((4aS,10aR)-14-(4-chlorophenyl)-12,12-dimethyl-1,2,4a,5,8,9,10a,11,13,15-decahydro-7H,12H-benzo[f]pyrazino[2,1-c][1,8]dioxa[4]azacycloundecin-3(4H)-yl)-2-(3,4-dihydro-2H-pyrrolo[3′,2′:5,6]pyrido[2,3-b][1,4]oxazepin-1(7H)-yl)-N-((4-(((2R,5S)-5-methoxytetrahydro-2H-pyran-2-yl)methoxy)-3-nitrophenyl)sulfonyl)benzamide]
Molt-4 cells
  EC50: 6080 nM
RS4;11 cells; 24 hours
  EC50: 3.49 nM
Bcl-2 protein
  Ki: 0.272 nM
Bcl-xL protein
  Ki: 28.6 nM

## CC1(C)CC(c2ccc(Cl)cc2)=C2CN3CCN(c4ccc(C(=O)NS(=O)(=O)c5ccc(NCC6CCOCC6)c([N+](=O)[O-])c5)c(N5CCCOc6nc7[nH]ccc7cc65)c4)C[C@H]3COCCCO[C@@H]2C1 [Example 1, 4-((4aS,10aR)-14-(4-chlorophenyl)-12,12-dimethyl-1,2,4a,5,8,9,10a,11,13,15-decahydro-7H,12H-benzo[f]pyrazino[2,1-c][1,8]dioxa[4]azacycloundecin-3(4H)-yl)-2-(3,4-dihydro-2H-pyrrolo[3′,2′:5,6]pyrido[2,3-b][1,4]oxazepin-1(7H)-yl)-N-((3-nitro-4-(((tetrahydro-2H-pyran-4-yl)methyl)amino)phenyl)sulfonyl)benzamide]
Molt-4 cells
  EC50: > 10000 nM
RS4;11 cells; 24 hours
  EC50: 4.01 nM
Bcl-2 protein
  Ki: 0.459 nM
Bcl-xL protein
  Ki: 19.4 nM

## CC1(C)CC(c2ccc(Cl)cc2)=C2CN3CCN(c4ccc(C(=O)NS(=O)(=O)c5ccc(OCC6(F)CCN(C7COC7)CC6)c([N+](=O)[O-])c5)c(N5CCCOc6nc7[nH]ccc7cc65)c4)C[C@H]3COCCCO[C@@H]2C1 [Example 19, 4-((4aS,10aR)-14-(4-chlorophenyl)-12,12-dimethyl-1,2,4a,5,8,9,10a,11,13,15-decahydro-7H,12H-benzo[f]pyrazino[2,1-c][1,8]dioxa[4]azacycloundecin-3(4H)-yl)-2-(3,4-dihydro-2H-pyrrolo[3′,2′:5,6]pyrido[2,3-b][1,4]oxazepin-1(7H)-yl)-N-((4-((4-fluoro-1-(oxetan-3-yl)piperidin-4-yl)methoxy)-3-nitrophenyl)sulfonyl)benzamide]
Molt-4 cells
  EC50: 132 nM
RS4;11 cells; 24 hours
  EC50: 0.881 nM
Bcl-2 protein
  Ki: 0.475 nM
Bcl-xL protein
  Ki: 2.23 nM

## CC1(C)CC(c2ccc(Cl)cc2)=C2CN3CCN(c4ccc(C(=O)NS(=O)(=O)c5ccc(OCC6CCOCC6)c([N+](=O)[O-])c5)c(N5CCCOc6nc7[nH]ccc7cc65)c4)C[C@H]3COCCCO[C@@H]2C1 [Example 46, 4-((4aS,10aR)-14-(4-chlorophenyl)-12,12-dimethyl-1,2,4a,5,8,9,10a,11,13,15-decahydro-7H,12H-benzo[f]pyrazino[2,1-c][1,8]dioxa[4]azacycloundecin-3(4H)-yl)-2-(3,4-dihydro-2H-pyrrolo[3′,2′:5,6]pyrido[2,3-b][1,4]oxazepin-1(7H)-yl)-N-((3-nitro-4-((tetrahydro-2H-pyran-4-yl)methoxy)phenyl)sulfonyl)benzamide]
Molt-4 cells
  EC50: > 10000 nM
RS4;11 cells; 24 hours
  EC50: 9.36 nM
Bcl-2 protein
  Ki: 0.202 nM
Bcl-xL protein
  Ki: 21.7 nM

## CC1(C)CC(c2ccc(Cl)cc2)=C2CN3CCN(c4ccc(C(=O)NS(=O)(=O)c5ccc(NC[C@H]6CC[C@H](O)CO6)c([N+](=O)[O-])c5)c(N5CCCOc6nc7[nH]ccc7cc65)c4)C[C@H]3COCCCO[C@@H]2C1 [Example 12, 4-((4aS,10aR)-14-(4-chlorophenyl)-12,12-dimethyl-1,2,4a,5,8,9,10a,11,13,15-decahydro-7H,12H-benzo[f]pyrazino[2,1-c][1,8]dioxa[4]azacycloundecin-3(4H)-yl)-2-(3,4-dihydro-2H-pyrrolo[3′,2′:5,6]pyrido[2,3-b][1,4]oxazepin-1(7H)-yl)-N-((4-((((2R,5S)-5-hydroxytetrahydro-2H-pyran-2-yl)methyl)amino)-3-nitrophenyl)sulfonyl)benzamide]
Molt-4 cells
  EC50: 823 nM
RS4;11 cells; Homo sapiens, RS4-11, 24 h
  EC50: 0.966 nM
Bcl-2 protein
  Ki: 0.888 nM
Bcl-xL protein
  Ki: 6.13 nM

## CC1(C)CC(c2ccc(Cl)cc2)=C2CN3CCN(c4ccc(C(=O)NS(=O)(=O)c5ccc(NC[C@H]6CC[C@H](N7CCOCC7)CO6)c([N+](=O)[O-])c5)c(N5CCCOc6nc7[nH]ccc7cc65)c4)C[C@H]3COCCCO[C@@H]2C1 [Example 37, 4-((4aS,10aR)-14-(4-chlorophenyl)-12,12-dimethyl-1,2,4a,5,8,9,10a,11,13,15-decahydro-7H,12H-benzo[f]pyrazino[2,1-c][1,8]dioxa[4]azacycloundecin-3(4H)-yl)-2-(3,4-dihydro-2H-pyrrolo[3′,2′:5,6]pyrido[2,3-b][1,4]oxazepin-1(7H)-yl)-N-((4-((((2R,5S)-5-morpholinotetrahydro-2H-pyran-2-yl)methyl)amino)-3-nitrophenyl)sulfonyl)benzamide]
Molt-4 cells
  EC50: 1450 nM
RS4;11 cells; 24 hours
  EC50: 1.05 nM
Bcl-2 protein
  Ki: 0.109 nM
Bcl-xL protein
  Ki: 4.61 nM
